Several values for one entry are separate records, joined by “and”; a condition that tells them apart may be missing. Equal values may be shown once.
COC(F)(F)C(F)(F)F [methyl pentafluoroethyl ether]
Details	mass density [kg/m3]
240 K, 142.7 kPa, Liquid	1425.44
240 K, 525.8 kPa, Liquid	1426.3
240 K, 1016.6 kPa, Liquid	1427.42
240 K, 1498.9 kPa, Liquid	1428.49
240 K, 2020 kPa, Liquid	1429.64
240 K, 2495.8 kPa, Liquid	1430.67
240 K, 3020.1 kPa, Liquid	1431.83
240 K, 3526.2 kPa, Liquid	1432.91
240 K, 4022.9 kPa, Liquid	1433.98
240 K, 4516.7 kPa, Liquid	1435.03
240 K, 5006.8 kPa, Liquid	1436.06
240 K, 5507.4 kPa, Liquid	1437.1
240 K, 6031.3 kPa, Liquid	1438.18
240 K, 6522.4 kPa, Liquid	1439.2
240 K, 6991.3 kPa, Liquid	1440.14
250 K, 508.4 kPa, Liquid	1401.06
250 K, 999.4 kPa, Liquid	1402.28
250 K, 1512.6 kPa, Liquid	1403.57
250 K, 1981.4 kPa, Liquid	1404.73
250 K, 2484.2 kPa, Liquid	1405.96
250 K, 3006.1 kPa, Liquid	1407.22
250 K, 3493.4 kPa, Liquid	1408.39
250 K, 4031.6 kPa, Liquid	1409.66
250 K, 4527.8 kPa, Liquid	1410.82
250 K, 5017.1 kPa, Liquid	1411.96
250 K, 5520.4 kPa, Liquid	1413.12
250 K, 5982.1 kPa, Liquid	1414.17
250 K, 6505.2 kPa, Liquid	1415.37
250 K, 6941.8 kPa, Liquid	1416.34
260 K, 86.5 kPa, Liquid	1374.31
260 K, 500.8 kPa, Liquid	1375.48
260 K, 1002.7 kPa, Liquid	1376.9
260 K, 1516.5 kPa, Liquid	1378.35
260 K, 2001 kPa, Liquid	1379.71
260 K, 2509.7 kPa, Liquid	1381.11
260 K, 3006.5 kPa, Liquid	1382.45
260 K, 3509.7 kPa, Liquid	1383.8
260 K, 4009.1 kPa, Liquid	1385.14
260 K, 4516.6 kPa, Liquid	1386.48
260 K, 5008.9 kPa, Liquid	1387.75
260 K, 5494.8 kPa, Liquid	1389
260 K, 6029.6 kPa, Liquid	1390.36
260 K, 6497.8 kPa, Liquid	1391.53
260 K, 6976.1 kPa, Liquid	1392.71
270 K, 526.2 kPa, Liquid	1348.82
270 K, 1033.1 kPa, Liquid	1350.45
270 K, 1545.3 kPa, Liquid	1352.07
270 K, 2026.1 kPa, Liquid	1353.57
270 K, 2522.2 kPa, Liquid	1355.11
270 K, 3044.2 kPa, Liquid	1356.7
270 K, 3549.7 kPa, Liquid	1358.22
270 K, 3956.7 kPa, Liquid	1359.43
270 K, 4491.8 kPa, Liquid	1360.99
270 K, 5023.1 kPa, Liquid	1362.54
270 K, 5514.7 kPa, Liquid	1363.95
270 K, 6030.4 kPa, Liquid	1365.42
270 K, 6512.4 kPa, Liquid	1366.76
270 K, 6977.7 kPa, Liquid	1367.99
280 K, 445.3 kPa, Liquid	1320.87
280 K, 957.2 kPa, Liquid	1322.76
280 K, 1474.3 kPa, Liquid	1324.63
280 K, 1861.1 kPa, Liquid	1326.03
280 K, 2459.7 kPa, Liquid	1328.12
280 K, 2951.9 kPa, Liquid	1329.83
280 K, 3497.7 kPa, Liquid	1331.69
280 K, 3963.9 kPa, Liquid	1333.26
280 K, 4513.2 kPa, Liquid	1335.09
280 K, 4981.9 kPa, Liquid	1336.62
280 K, 5492.2 kPa, Liquid	1338.26
280 K, 5847.1 kPa, Liquid	1339.41
280 K, 6466.8 kPa, Liquid	1341.37
280 K, 7194.3 kPa, Liquid	1343.64
290 K, 83.3 kPa, Liquid	1290.78
290 K, 504.8 kPa, Liquid	1292.57
290 K, 981.6 kPa, Liquid	1294.58
290 K, 1520.9 kPa, Liquid	1296.8
290 K, 2011.5 kPa, Liquid	1298.79
290 K, 2520.4 kPa, Liquid	1300.82
290 K, 2991.9 kPa, Liquid	1302.67
290 K, 3491.2 kPa, Liquid	1304.61
290 K, 4006.3 kPa, Liquid	1306.56
290 K, 4525.3 kPa, Liquid	1308.51
290 K, 4985.1 kPa, Liquid	1310.22
290 K, 5527.4 kPa, Liquid	1312.2
290 K, 6024.9 kPa, Liquid	1313.97
290 K, 6484.8 kPa, Liquid	1315.61
290 K, 6967.8 kPa, Liquid	1317.32
300 K, 45.7 kPa, Gas	2.84
300 K, 56.7 kPa, Gas	3.73
300 K, 82 kPa, Gas	5.31
300 K, 93.3 kPa, Gas	6.05
300 K, 98.2 kPa, Gas	6.15
300 K, 116.1 kPa, Gas	7.55
300 K, 131.7 kPa, Gas	8.6
300 K, 165.9 kPa, Gas	10.97
300 K, 188.8 kPa, Gas	12.58
300 K, 218.2 kPa, Gas	15.51
300 K, 225.7 kPa, Liquid	1260.66
300 K, 238.5 kPa, Liquid	1260.72
300 K, 491.2 kPa, Liquid	1262.72
300 K, 953.1 kPa, Liquid	1264.98
300 K, 1060.7 kPa, Liquid	1264.75
300 K, 1531 kPa, Liquid	1267.74
300 K, 2019 kPa, Liquid	1270.02
300 K, 2031.9 kPa, Liquid	1269.32
300 K, 2496.4 kPa, Liquid	1272.22
300 K, 2993.2 kPa, Liquid	1274.45
300 K, 3055.9 kPa, Liquid	1273.93
300 K, 3514 kPa, Liquid	1276.75
300 K, 4031 kPa, Liquid	1279
300 K, 4031.8 kPa, Liquid	1278.16
300 K, 4522.9 kPa, Liquid	1281.1
300 K, 4978 kPa, Liquid	1283
300 K, 5197 kPa, Liquid	1282.99
300 K, 5491.3 kPa, Liquid	1285.12
300 K, 5997.8 kPa, Liquid	1287.18
300 K, 6173.2 kPa, Liquid	1286.91
300 K, 6524.7 kPa, Liquid	1289.29
300 K, 7023.9 kPa, Liquid	1291.24
300 K, 7126.4 kPa, Liquid	1290.5
310 K, 21.5 kPa, Gas	1.25
310 K, 31.7 kPa, Gas	1.86
310 K, 97.3 kPa, Gas	5.82
310 K, 144.4 kPa, Gas	8.89
310 K, 195.7 kPa, Gas	12.34
310 K, 245.2 kPa, Gas	15.73
310 K, 276.7 kPa, Gas	17.86
310 K, 300.3 kPa, Liquid	1229.27
310 K, 312.6 kPa, Liquid	1229.37
310 K, 517 kPa, Liquid	1231.54
310 K, 1007.8 kPa, Liquid	1234.36
310 K, 1029.3 kPa, Liquid	1233.39
310 K, 1513.8 kPa, Liquid	1237.16
310 K, 2033.1 kPa, Liquid	1239.99
310 K, 2065.7 kPa, Liquid	1238.99
310 K, 2524.9 kPa, Liquid	1242.6
310 K, 3064.4 kPa, Liquid	1245.4
310 K, 3131.6 kPa, Liquid	1244.48
310 K, 3532.8 kPa, Liquid	1247.78
310 K, 3972.8 kPa, Liquid	1249.95
310 K, 4126.7 kPa, Liquid	1249.38
310 K, 4507.3 kPa, Liquid	1252.57
310 K, 5034.7 kPa, Liquid	1255.08
310 K, 5145.5 kPa, Liquid	1254.18
310 K, 5514.9 kPa, Liquid	1257.34
310 K, 6031.8 kPa, Liquid	1259.71
310 K, 6158.3 kPa, Liquid	1258.81
310 K, 6533.8 kPa, Liquid	1261.96
310 K, 7010.8 kPa, Liquid	1264.09
310 K, 7224 kPa, Liquid	1263.45
320 K, 61.7 kPa, Gas	3.58
320 K, 90.4 kPa, Gas	5.23
320 K, 101.6 kPa, Gas	5.98
320 K, 132 kPa, Gas	7.77
320 K, 155.5 kPa, Gas	9.32
320 K, 191.5 kPa, Gas	11.5
320 K, 213.2 kPa, Gas	12.95
320 K, 276.1 kPa, Gas	17.25
320 K, 336.5 kPa, Gas	21.52
320 K, 383 kPa, Gas	24.92
320 K, 384.9 kPa, Gas	25.11
320 K, 389.1 kPa, Gas	25.46
320 K, 413.8 kPa, Liquid	1196.33
320 K, 506.3 kPa, Liquid	1198.36
320 K, 1023.1 kPa, Liquid	1201.87
320 K, 1053 kPa, Liquid	1200.63
320 K, 1521.8 kPa, Liquid	1205.15
320 K, 2002.9 kPa, Liquid	1208.23
320 K, 2051.9 kPa, Liquid	1207.02
320 K, 2517.3 kPa, Liquid	1211.43
320 K, 3022.6 kPa, Liquid	1214.49
320 K, 3053.1 kPa, Liquid	1213.09
320 K, 3517.5 kPa, Liquid	1217.45
320 K, 4012.9 kPa, Liquid	1220.32
320 K, 4120.2 kPa, Liquid	1219.2
320 K, 4543.1 kPa, Liquid	1223.3
320 K, 5018.6 kPa, Liquid	1225.9
320 K, 5085.4 kPa, Liquid	1224.49
320 K, 5551.9 kPa, Liquid	1228.77
320 K, 5992.8 kPa, Liquid	1231.09
320 K, 6206.6 kPa, Liquid	1230.35
320 K, 6495.8 kPa, Liquid	1233.69
320 K, 6965.6 kPa, Liquid	1236.06
320 K, 7182.7 kPa, Liquid	1235.21
330 K, 70.8 kPa, Gas	3.97
330 K, 98.4 kPa, Gas	5.48
330 K, 103.9 kPa, Gas	5.88
330 K, 151.6 kPa, Gas	8.67
330 K, 169.4 kPa, Gas	9.72
330 K, 219.7 kPa, Gas	12.83
330 K, 235.2 kPa, Gas	13.71
330 K, 295.3 kPa, Gas	17.66
330 K, 307.4 kPa, Gas	18.42
330 K, 315.2 kPa, Gas	18.98
330 K, 375.8 kPa, Gas	23.12
330 K, 444.8 kPa, Gas	28.23
330 K, 472.9 kPa, Gas	30.25
330 K, 547.4 kPa, Liquid	1161.55
330 K, 1004 kPa, Liquid	1165.27
330 K, 1009.1 kPa, Liquid	1167.02
330 K, 1493.2 kPa, Liquid	1170.86
330 K, 1999 kPa, Liquid	1172.99

mass density
Details	240 K	250 K	260 K	270 K	280 K	290 K	300 K	310 K	320 K
Gas	–	–	–	–	–	–	–	23.61 kg/m3	29.81 kg/m3
Liquid	1425.22 kg/m3	1399.85 kg/m3	1374.2 kg/m3	1347.19 kg/m3	1319.62 kg/m3	1291.09 kg/m3	1260.39 kg/m3 and 1261.37 kg/m3 and 1261.41 kg/m3	1230.28 kg/m3	1196.29 kg/m3 and 1197.68 kg/m3

Source: the NIST ThermoML archive (doi:10.1021/je025657+)
